The values below come from patent US20120129764A1 (priority 2009, published 2012).

One assay deals with PA (FluB). Type of assay: binding, influenza B virus.
Another assay relates to PA (FluA). Type of assay: binding, influenza A virus.

Bounds are passed on as bounds.

“MDVNPHLLFLKVPAQ [PB11-15AT6H, -----H---------]” gave an IC50 in the assay with PA (FluB) of more than 3000 nM.
As to “MDVNPTFLFLKVPAQ [PB11-15AL7F, ------F--------]”, the IC50 in the assay with PA (FluB) is more than 3000 nM.
As for “MNINPYFLFIDVPIQ [PB11-15B, -NI--YF--ID--I-, reference compound]”, in the assay on PA (FluA), the IC50 was more than 3000 nM and the “competition for binding to FluA PA” value is “not FluA PA binding”. In the assay on PA (FluB), the IC50 stood at 45 nM and the “competition for binding to FluB PA” value is “blocked FluB PA”.
Consider MDVNPWLLFLKVPAQ [PB11-15AT6W], for which the IC50 with PA (FluA) turned out to be 3.4 nM; in the assay on PA (FluB) it was 628 nM.
Consider MDVNPYFLFLKVPAQ [PB11-15AT6Y,L7F], for which, in the assay with PA (FluA), 7.51 nM corresponded to half-maximal inhibition (IC50) and the “competition for binding to FluA PA” value is on record as “competed for binding to FluA PA”. In addition, in the assay with PA (FluB), the IC50 was determined as 345 nM and the “competition for binding to FluB PA” value is “also to FluB PA, albeit with less affinity than PB11-15B”.
Take “MNINPTLLFLKVPAQ [PB11-15AD2N,V3I, -NI------------]”: the IC50 in the assay with PA (FluB) is more than 3000 nM.
Turning to “MDVNPTLLFLKVPAQ [PB11-15A, reference compound]”, in the assay with PA (FluB), the 50% inhibitory concentration (IC50) is more than 3000 nM and the “competition for binding to FluB PA” value was “not FluB PA binding”.
As for “MNINPTLLFLKVPIQ [PB11-15AD2N,V3I,L14I, -NI----------I-]”, the IC50 with PA (FluB) is more than 3000 nM.
For MDVNPYLLFLKVPAQ [PB11-15AT6Y], in the assay on PA (FluA), the IC50 was found to be 21.6 nM and the “competition for binding to FluA PA” value was “decreased binding of FluA PA compared to the double mutant, yet binding was still better than with wild type peptide”. For the same sequence, in the assay on PA (FluB), it took 107 nM to reach half-maximal inhibition (IC50) and the “competition for binding to FluB PA” value was “binding to FluB PA increased”.
Consider “MDVNPCLLFLKVPAQ [PB11-15AT6C, -----C---------]”, for which the IC50 in the assay with PA (FluA) was 43.6 nM; in the assay with PA (FluB), more than 3000 nM.
In the assay with PA (FluB), “MDVNPTLLFIDVPAQ [PB11-15AL10I,K11D, ---------ID----]” showed an IC50 of more than 3000 nM.
For MDVNPFLLFLKVPAQ [PB11-15AT6F], the values for the IC50 with PA (FluA) and in the assay with PA (FluB) were 2.84 nM and 750 nM, respectively.

A word on the IC50: it is the midpoint of a concentration-inhibition curve. Lower therefore signals higher potency.
